The values that follow come from PubChem BioAssay (NCI).

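Results reflect a 48-hour exposure of cells in 96-well plates to compound at five concentrations. GI50: concentration for 50% inhibition of growth. TGI: concentration producing complete growth inhibition.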 Some results are limits rather than exact numbers.

One may read the TGI as the concentration giving total growth inhibition. Read a low TGI as greater sensitivity of the cells. The term GI50 denotes the concentration giving 50% growth inhibition.

For the first assay, the system named is HCT-15 colon. As to the kind of experiment: DTP human tumour cell line panel, 48 h.
In the case of `O=C1NC(=O)C2C(=O)NC(=O)C1C2Cc1ccco1` (centres undefined), the TGI is greater than 100 µM.
As for `S=C1SCN(Cc2ccccc2)CN1Cc1ccco1`, the GI50 is 2.95 µM and the concentration for total growth inhibition (TGI) was 14.4 µM.
In the case of `CSc1nc2nc(-c3ccccc3)c(C)c-2c2n1C(C)C(=O)N2` (centres undefined), the GI50 is 51.2 µM and the TGI is greater than 100 µM.
Compound `CC(=O)Nc1ccc(C2CC(c3ccc([N+](=O)[O-])cc3)=Nc3ccccc3S2=O)cc1` (centres undefined) yielded a TGI of 50.2 µM.
Take `COc1ccccc1Oc1nccc(-c2c(-c3ccc(F)cc3)ncn2C2CCNCC2)n1`: the GI50 is greater than 25 µM and the TGI was greater than 25 µM.
For the compound `C#Cc1ccc(-n2c(/C=C/c3ccc(O)cc3)nc3ncccc3c2=O)cc1`, the GI50 was 4.65 µM and the TGI is greater than 100 µM.
As for `O=C(NCCc1ccccc1)C1C(=O)C(=O)N(CCc2ccccc2)C1=O` (centres undefined), the total growth inhibition concentration (TGI) was greater than 100 µM.
The same measure, in the same setting: the result for `O=[N+]([O-])c1ccc(-c2ccc(C3=Nn4c(CNc5ccccc5Cl)nnc4SC3)o2)cc1` reads greater than 100 µM; that for `CCCC(=O)CC(C)C(=O)C(=O)NC12CC3CC(CC(C3)C1)C2` (centres undefined), greater than 100 µM; that for `CC(=O)OCC(=O)[C@@]1(O)CC[C@H]2[C@@H]3C[C@H](C)C4=CC(=O)C=C[C@]4(C)[C@@]3(F)[C@@H](O)C[C@@]21C`, greater than 100 µM.
The same measure, in the same setting: the result for `Nc1nc(=S)c2c(ncn2CCO)[nH]1` reads greater than 100 µM.
On the same count and under the same terms, in the case of `CCCCCC/C=C\CCCCCCCCC(=O)c1cccc(OC)c1OC` it was greater than 100 µM.

For the next assay, the system named is NCI-H23 lung. As to the kind of experiment: DTP human tumour cell line panel, 48 h.
On to `CCOC(=O)C1=C(NC)OCC1=O`, for which the total growth inhibition concentration (TGI) was greater than 100 µM.
Regarding `CCc1ccc(Nc2cc(C)c3ccc(O)cc3n2)cc1`, the GI50 was 3.34 µM and the TGI came out at 15.6 µM.
Taken in the same sequence, the figures for `COc1ccc(Nc2cnc3cc(N)cc(N)c3n2)cc1` were 2.02 µM and 7.65 µM.
Turning to `COc1cc(/C=C/c2cc(/C=C/c3ccc(O)c(OC)c3)n(C(=O)c3ccccc3Br)n2)ccc1O`, the GI50 was 2.68 µM and the concentration for total growth inhibition (TGI) was determined as 16.9 µM.
As to `O=C1NC(=O)C2C(=O)NC(=O)C1C2Cc1ccco1` (centres undefined), the TGI is greater than 100 µM.
As for `S=C1SCN(Cc2ccccc2)CN1Cc1ccco1`, the GI50 is 5.21 µM and the TGI was 34.9 µM.
With `COc1ccccc1CNCCN1C(=O)c2ccc3c4c(ccc(c24)C1=O)C(=O)N(CCNCc1ccccc1OC)C3=O`, the GI50 is 0.19 µM and the TGI came to 0.394 µM.
Compound `CC(=O)Nc1ccc(C2CC(c3ccc([N+](=O)[O-])cc3)=Nc3ccccc3S2=O)cc1` (centres undefined) returned a TGI of 53.9 µM.
Same read-out and setting: the result for `COc1cc(/C=C2\NC(=O)C(Cc3cc(OC)c(OC)c(C)c3OC)N(C(C)=O)C2=O)c(OC)c(C)c1OC` (centres undefined) reads greater than 100 µM.
On to `COc1cc(C(=O)/C=C/c2cccc(Nc3ccnc4cc(Cl)ccc34)c2)cc(OC)c1OC`, for which the GI50 is 1.67 µM and the TGI turned out to be 3.68 µM.
`O=C1N[C@@H]2CCCC[C@@H]2C12CCCCC2` registered a TGI greater than 100 µM.
Take `C#Cc1ccc(-n2c(/C=C/c3ccc(O)cc3)nc3ncccc3c2=O)cc1`: the GI50 is 5.52 µM and the TGI was greater than 100 µM.
Consider `O=C(NCCc1ccccc1)C1C(=O)C(=O)N(CCc2ccccc2)C1=O` (centres undefined), for which the TGI is greater than 100 µM.
Same read-out and setting: the result for `CCOC(=O)C1S(=O)(=O)OCCOS1(=O)=O` reads greater than 100 µM; that for `O=[N+]([O-])c1ccc(-c2ccc(C3=Nn4c(CNc5ccccc5Cl)nnc4SC3)o2)cc1`, greater than 100 µM.
`CCCC(=O)CC(C)C(=O)C(=O)NC12CC3CC(CC(C3)C1)C2` (centres undefined): the total growth inhibition concentration (TGI) was greater than 100 µM.
The same measure, in the same setting: the result for `CC(=O)OCC(=O)[C@@]1(O)CC[C@H]2[C@@H]3C[C@H](C)C4=CC(=O)C=C[C@]4(C)[C@@]3(F)[C@@H](O)C[C@@]21C` reads greater than 100 µM; that for `CCCCCC/C=C\CCCCCCCCC(=O)c1cccc(OC)c1OC`, greater than 100 µM.

Another assay deals with U251 CNS. Kind of assay: DTP human tumour cell line panel, 48 h.
On to `CCOC(=O)C1=C(NC)OCC1=O`, for which the TGI was greater than 100 µM.
Same read-out and setting: in the case of `CCOC(=O)C1(C)CCC(C(C(=O)O)C(=O)O)CC1=O` (centres undefined) it was greater than 100 µM.
With `CCc1ccc(Nc2cc(C)c3ccc(O)cc3n2)cc1`, the GI50 was 6.84 µM and the TGI amounted to 22.5 µM.
Taken in the same sequence, the figures for `COc1ccc(Nc2cnc3cc(N)cc(N)c3n2)cc1` were 14.9 µM and 35.5 µM.
Taken in the same sequence, the figures for `COc1cc(/C=C/c2cc(/C=C/c3ccc(O)c(OC)c3)n(C(=O)c3ccccc3Br)n2)ccc1O` were 2.62 µM and greater than 100 µM.
Turning to `S=C1SCN(Cc2ccccc2)CN1Cc1ccco1`, the GI50 is 21.3 µM and the TGI amounted to 68.3 µM.
In the case of `COc1ccccc1CNCCN1C(=O)c2ccc3c4c(ccc(c24)C1=O)C(=O)N(CCNCc1ccccc1OC)C3=O`, the GI50 was 0.225 µM and the concentration for total growth inhibition (TGI) was 0.505 µM.
Taken in the same sequence, the figures for `CSc1nc2nc(-c3ccccc3)c(C)c-2c2n1C(C)C(=O)N2` (centres undefined) were 68.2 µM and greater than 100 µM.
The like results for `COc1ccccc1Oc1nccc(-c2c(-c3ccc(F)cc3)ncn2C2CCNCC2)n1` were, in that order, greater than 24 µM and greater than 25 µM.
Compound `COc1cc(/C=C2\NC(=O)C(Cc3cc(OC)c(OC)c(C)c3OC)N(C(C)=O)C2=O)c(OC)c(C)c1OC` (centres undefined) came in with a concentration for total growth inhibition (TGI) greater than 100 µM.
Take `COc1cc(C(=O)/C=C/c2cccc(Nc3ccnc4cc(Cl)ccc34)c2)cc(OC)c1OC`: the GI50 is 0.911 µM and the TGI was found to be 2.24 µM.
`O=C1N[C@@H]2CCCC[C@@H]2C12CCCCC2` showed a TGI greater than 100 µM.
With `C#Cc1ccc(-n2c(/C=C/c3ccc(O)cc3)nc3ncccc3c2=O)cc1`, the GI50 was 4.02 µM and the total growth inhibition concentration (TGI) was greater than 100 µM.
Compound `O=C(NCCc1ccccc1)C1C(=O)C(=O)N(CCc2ccccc2)C1=O` (centres undefined) came in with a TGI greater than 100 µM.
Compound `O=[N+]([O-])c1ccc(-c2ccc(C3=Nn4c(CNc5ccccc5Cl)nnc4SC3)o2)cc1` displayed a TGI greater than 100 µM.
Regarding `CCCC(=O)CC(C)C(=O)C(=O)NC12CC3CC(CC(C3)C1)C2` (centres undefined), the TGI was greater than 100 µM.
Still for that read-out and setting: the result for `CC(=O)OCC(=O)[C@@]1(O)CC[C@H]2[C@@H]3C[C@H](C)C4=CC(=O)C=C[C@]4(C)[C@@]3(F)[C@@H](O)C[C@@]21C` reads greater than 100 µM; that for `Nc1nc(=S)c2c(ncn2CCO)[nH]1`, greater than 100 µM.
Still for that read-out and setting: in the case of `CCCCCC/C=C\CCCCCCCCC(=O)c1cccc(OC)c1OC` it was greater than 100 µM.
